# Where two headings read alike, the source gives them in different places.
# Tests used:
# [1] = target: T1, Fc portion of human IgG (binding of protein A to human IgG); test: Competitive protein A binding ELISA
# T1 construct: fused on or other part: Horseradish peroxidase chemically conjugated to the IgG (HRP-IgG)
# Procedure, shortened: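 Protein A coated overnight at 4 °C and blocked with 2% BSA. Compound, diluted in PBS or PBS-20% DMSO, competed with HRP-conjugated human IgG for 1 h at 37 °C. Bound IgG detected with ABTS at 405 nm; IC50 is the concentration inhibiting 50% of protein A binding.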
# [2] = target: T2, TNFα / p75 TNFα receptor (CD120b) (Homo sapiens, UniProt P01375); test: Binding ELISA: TNF-α binding to plastic coated TNF-R2; conditions: for inhibition at 100 µM: 10^−4 M; for inhibition at 10 µM: 10^−5 M
# Experimental: (§1) Compounds were tested for their ability to bind to TNFα or inhibit the interaction of TNFα with its respective receptors; p55 and p75 TNFα receptor. Three binding ELISA assays were undertaken as described by Mancini et al. Biochemical Pharmacology 58, 851-859 (1999). TNFα or receptor (1 μg/mL) was coated on a 96-well plate Maxisorp, overnight at 4° C. After incubation, unbound TNFα or p55 TNFα receptor or p75 TNFα receptor was removed and the plate washed three times with PBS. The plate was then incubated with 100 μL/well of a 2% BSA solution for 1 h at 37° C. to block non specific protein binding. After incubation, the plate was washed three times with PBS. Biotinylated recombinant human TNFα p55 or p75 receptor or biotinylated recombinant human TNFα was added to the wells in the presence or absence of compounds. The plate was incubated for 1 h at 37° C. After incubation, the plate was washed three times with PBS to remove unbound labeled p55 or p75 receptor or recombinant human TNFα. 100 μL of avidin-HRP (diluted 1/2000 in PBS-0.1% BSA) was added to each well and incubated 1 h at 37° C. Bound p55 or p75 receptor or recombinant human TNFα was detected by the addition of 200 μL of 3,3′,5,5′-tetramethylbenzidine (TMB) per well for 15 min. The plate was then read at 655 nm on a EL 800 universal Microplate reader (Bio-Tek, Mississauga, Canada). Data was analyzed in Microsoft Excel and recorded as the percentage of inhibition of p55 or p75 binding to TNFα or TNFα binding to RI (p55) or RII (p75).
# [3] = target: T2, TNFα / p75 TNFα receptor (CD120b); test: Binding ELISA: sTNF-R2 binding to plastic coated TNF-α
# Experimental: as §1
# [4] = tested on: TNFα-induced apoptosis, WEHI-13VAR cells; test: TNFα induced apoptosis in WEHI-13VAR cells (MTT); assay type: cell-based, murine; conditions: Mus musculus
# Experimental: Effect of compounds on TNFα-induced apoptosis was measured by a standard biological assay using WEHI-13VAR cells. These cells undergo apoptosis when they are incubated in the presence of TNFα and actinomycin D. 2×10^4 WEHI-13VAR cells were incubated in RPMI supplemented with 1% sodium pyruvate and 10% FBS, overnight at 37° C. for cell adherence. The cells were then cultured in the presence of 1 μg/mL of actinomycin D (to inhibit protein synthesis) and 0.04 nM TNFα with or without compounds at 37° C. After 16-24 h, 50 μL of a solution of 2 mg/mL of MTT was added to each well and the plate was then incubated for 4 h at 37° C. Only viable cells metabolize MTT to form formazan salt, which is detectable by the measurement of absorbance at 570 nm. After the incubation, the plate was inverted to remove medium and dead cells. 150 μL DMSO was added to each well to stop the reaction and solubilize the formazan salt. Optical density was read on a EL 800, universal Microplate reader (Bio-Tek). A decrease in the optical density is direct evidence of cell apoptosis induced by TNFα. Compounds were also compared to the activity of an anti-TNFα neutralizing antibody.
# [5] = tested on: peripheral blood mononuclear leukocytes (PBML); test: PBML DNA synthesis (thymidine); assay type: cell-based, human; conditions: for IC50: Homo sapiens, Leukocyte; for effect on DNA synthesis (in words): resting and stimulated (ConA and PWM) PBML
# Source text: PBML were obtained from the peripheral blood of healthy volunteers. Blood was submitted to gradient centrifugation with Lympholyte-poly (Cedarlane, Hornby, Canada). The layer, which contains the mononuclear leukocytes, was collected and the cells washed three times in PBS. Cells were then suspended in RPMI (Gibco, Burlington, Canada) supplemented with […] (cyclone, Logan USA). Viability was greater than 99% as determined by trypan blue exclusion.
# PBML were resuspended at 2×10^6 cells mL. 100 μL of PBML (2×10^5 cells) were incubated in a 96-well microtiter plate for 48 h in the presence or absence of compound or protein A. Cells were quiescent or stimulated with concanavalin A (ConA; T-cells) or pokeweed mitogen (PWM; B-cells). After incubation, cells were treated with MTT (cytotoxicity) or pulsed with 1 μCi of [^3]-thymidine (DNA synthesis), [^3H]-uridine (RNA synthesis) or [^3]-leucine (protein synthesis) for 6 h. Plates were harvested on a Tomteck and counted on a Microbeta β-counter.
# [6] = Table 1, PBS-20% DMSO, read-out: IC50 (μM): Assay in PBS-20% DMSO
# T2 sequence (P01375 77-233 limits assumed): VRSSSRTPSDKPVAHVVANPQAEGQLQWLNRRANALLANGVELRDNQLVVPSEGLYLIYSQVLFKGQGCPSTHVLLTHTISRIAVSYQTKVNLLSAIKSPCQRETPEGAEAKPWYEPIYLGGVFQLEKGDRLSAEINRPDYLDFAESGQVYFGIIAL
structure (smiles),measurement,setting,value
Oc1ccc(CCNc2nc(NCCNc3nc(NCCc4ccc(O)cc4)nc(Nc4ccccc4)n3)nc(Nc3ccccc3)n2)cc1 [Compound 1],IC50,[1]; [6],50 µM
same,inhibition at 100 µM,[2],63.3%
same,inhibition at 10 µM,[2],38.4%
same,inhibition at 100 µM,[3]; 10^−4 M,0%
same,inhibition at 10 µM,[3]; 10^−5 M,0%
same,inhibition at 10 µM,[4]; 1 × 10^−5M,36.8%
same,inhibition at 20 µM,[4]; 2 × 10^−5M,17.7%
same,inhibition at 40 µM,[4]; 4 × 10^−5M,-3.8%
same,inhibition at 5 µM,[4]; 5 × 10^−6M,14.3%
same,IC50,[5]; ConA stimulated PBML,1.42 µM
same,IC50,[5]; PWM stimulated PBML,0.77 µM
same,IC50,[5]; Resting PBML,2.49 µM
same,effect on DNA synthesis (in words),[5],suppress
Nc1ccc(CCNc2nc(Nc3ccc(CCNc4nc(NCCO)nc(Nc5cccc(N)c5)n4)cc3)nc(Nc3cccc(N)c3)n2)cc1 [Compound 19a],IC50,[1]; [6],0.003 µM
same,IC50,"[1]; Table 1, PBS, read-out: IC50 (μM): Assay in PBS",0.06 µM
same,IC50,"[1]; Table 2, PBS-20% DMSO, n = 5 or 6, read-out: IC50 (n = 5 or 6) PBS-20% DMSO",0.0035 µM
same,IC50,"[1]; Table 2, PBS, n = 5 or 6, read-out: IC50 (n = 5 or 6) PBS",0.088 µM
same,inhibition at 100 µM,[2],27.4%
same,inhibition at 10 µM,[2],24.3%
same,IC50,[5]; ConA stimulated PBML,1.57 µM
same,IC50,[5]; PWM stimulated PBML,4.38 µM
same,IC50,[5]; Resting PBML,1.9 µM
same,effect on DNA synthesis (in words),[5],suppress

# — patent US7683061B2, “Triazine dimers for the treatment of autoimmune diseases” (ProMetic BioSciences Inc., priority 2003, dated 2010)
